According to patent US20250312352A1, “GLP-1R MODULATING COMPOUNDS” (Gilead Sciences, Inc., priority 2021, published 2025):

What follows are compounds tested against T1, GLP-1R (Homo sapiens, UniProt P43220) (assay: GLP-1R activation cAMP assay (Assay 1 or Assay 2)). Details: cAMP increase in CHO cells stably expressing GLP-1R; compounds run on one of the two cAMP assays.
T1 construct: host or cells: CHO cells
Type: cell-based
Summary of the method: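 EC50 values come from a sigmoidal fit of HTRF-detected cAMP rise versus log agonist concentration. GLP-1R-expressing CHO cells, equilibrated 1 h at 37 °C in HBSS with HEPES and BSA, received a 10-point compound dose series for 30 min before detection.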

T1 sequence (P43220 24-463): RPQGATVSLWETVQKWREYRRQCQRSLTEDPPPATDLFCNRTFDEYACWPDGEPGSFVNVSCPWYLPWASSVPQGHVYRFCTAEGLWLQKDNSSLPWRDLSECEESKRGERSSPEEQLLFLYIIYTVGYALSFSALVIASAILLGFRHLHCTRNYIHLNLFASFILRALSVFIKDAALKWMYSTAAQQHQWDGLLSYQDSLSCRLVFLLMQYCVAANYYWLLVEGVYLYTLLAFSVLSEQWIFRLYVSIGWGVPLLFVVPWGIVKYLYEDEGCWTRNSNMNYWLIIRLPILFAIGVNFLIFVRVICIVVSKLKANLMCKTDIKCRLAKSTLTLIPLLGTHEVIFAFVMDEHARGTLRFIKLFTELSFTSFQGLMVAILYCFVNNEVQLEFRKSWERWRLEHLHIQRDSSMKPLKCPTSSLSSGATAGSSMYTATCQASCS

SMILES | EC50 [nM]
Cn1cc(C#Cc2ccc(COc3cccc(-c4cc(F)c(Cc5nc6ccc(C(=O)O)cc6n5C[C@@H]5CCO5)cc4F)n3)s2)cn1 [Example 112, (S)-2-(2,5-difluoro-4-(6-((5-((1-methyl-1H-pyrazol-4-yl)ethynyl)thiophen-2-yl)methoxy)pyridin-2-yl)benzyl)-1-(oxetan-2-ylmethyl)-1H-benzo[d]imidazole-6-carboxylic acid] | 0.13
Cn1cc(C#Cc2cnc(COc3cccc(-c4cc(F)c(Cc5nc6ccc(C(=O)O)cc6n5C[C@@H]5CCO5)cc4F)n3)s2)cn1 [Example 114, (S)-2-(2,5-difluoro-4-(6-((5-((1-methyl-1H-pyrazol-4-yl)ethynyl)thiazol-2-yl)methoxy)pyridin-2-yl)benzyl)-1-(oxetan-2-ylmethyl)-1H-benzo[d]imidazole-6-carboxylic acid] | 0.11
O=C(O)c1ccc2nc(Cc3cc(F)c(-c4cccc(OCc5ncc(C#Cc6cncs6)s5)n4)cc3F)n(C[C@@H]3CCO3)c2c1 [Example 116, (S)-2-(2,5-difluoro-4-(6-((5-(thiazol-5-ylethynyl)thiazol-2-yl)methoxy)pyridin-2-yl)benzyl)-1-(oxetan-2-ylmethyl)-1H-benzo[d]imidazole-6-carboxylic acid] | 0.15
O=C(O)c1ccc2nc(Cc3cc(F)c(-c4cccc(OCc5ncc(C#Cc6cnn(C7CC7)c6)s5)n4)cc3F)n(C[C@@H]3CCO3)c2c1 [Example 118, (S)-2-(4-(6-((5-((1-cyclopropyl-1H-pyrazol-4-yl)ethynyl)thiazol-2-yl)methoxy)pyridin-2-yl)-2,5-difluorobenzyl)-1-(oxetan-2-ylmethyl)-1H-benzo[d]imidazole-6-carboxylic acid] | 0.44

Further compounds by falling EC50, results first:

EC50 [nM] | SMILES
2.84 | O=C(O)c1ccc2nc(Cc3cc(F)c(-c4cccc(OCc5ccn(-c6ccccc6)n5)n4)cc3F)n(C[C@@H]3CCO3)c2c1 [Example 120, (S)-2-(2,5-difluoro-4-(6-((1-phenyl-1H-pyrazol-3-yl)methoxy)pyridin-2-yl)benzyl)-1-(oxetan-2-ylmethyl)-1H-benzo[d]imidazole-6-carboxylic acid]
0.28 | Cn1cc(C#Cc2cc(F)c(COc3cccc(-c4cc(F)c(Cc5nc6ccc(C(=O)O)cc6n5C[C@@H]5CCO5)cc4F)n3)s2)cn1 [Example 117, (S)-2-(2,5-difluoro-4-(6-((3-fluoro-5-((1-methyl-1H-pyrazol-4-yl)ethynyl)thiophen-2-yl)methoxy)pyridin-2-yl)benzyl)-1-(oxetan-2-ylmethyl)-1H-benzo[d]imidazole-6-carboxylic acid]
0.16 | CC1(C#Cc2ccc(COc3cccc(-c4cc(F)c(Cc5nc6ccc(C(=O)O)cc6n5C[C@@H]5CCO5)cc4F)n3)s2)COC1 [Example 113, (S)-2-(2,5-difluoro-4-(6-((5-((3-methyloxetan-3-yl)ethynyl)thiophen-2-yl)methoxy)pyridin-2-yl)benzyl)-1-(oxetan-2-ylmethyl)-1H-benzo[d]imidazole-6-carboxylic acid]
0.07 | CC1(C#Cc2cnc(COc3cccc(-c4cc(F)c(Cc5nc6ccc(C(=O)O)cc6n5C[C@@H]5CCO5)cc4F)n3)s2)COC1 [Example 115, (S)-2-(2,5-difluoro-4-(6-((5-((3-methyloxetan-3-yl)ethynyl)thiazol-2-yl)methoxy)pyridin-2-yl)benzyl)-1-(oxetan-2-ylmethyl)-1H-benzo[d]imidazole-6-carboxylic acid]
0.05 | Cn1cc(C#Cc2cnc(COc3cccc(-c4cc(F)c(Cc5nc6c(F)cc(C(=O)O)cc6n5C[C@@H]5CCO5)cc4F)n3)s2)cn1 [Example 111, 2-[[2,5-difluoro-4-[6-[[5-[2-(1-methylpyrazol-4-yl)ethynyl]thiazol-2-yl]methoxy]-2-pyridyl]phenyl]methyl]-7-fluoro-3-[[(2S)-oxetan-2-yl]methyl]benzimidazole-5-carboxylic acid]
